Data: patent US20240000786A1, “COMPOSITION FOR ENHANCING INTRA-CELLULAR NITRIC OXIDE GENERATION” (INSTITUTE OF LIFE SCIENCES, priority 2020, published 2024)
Peptide text beside a SMILES is read from it.

T1: iNOS-NOSIP protein interaction (Homo sapiens, UniProt Q9Y314)
T1 construct: made in house; host or cells: E. coli BL21 (DE3)
T1 sequence (Q9Y314 with tags, fused parts or gaps): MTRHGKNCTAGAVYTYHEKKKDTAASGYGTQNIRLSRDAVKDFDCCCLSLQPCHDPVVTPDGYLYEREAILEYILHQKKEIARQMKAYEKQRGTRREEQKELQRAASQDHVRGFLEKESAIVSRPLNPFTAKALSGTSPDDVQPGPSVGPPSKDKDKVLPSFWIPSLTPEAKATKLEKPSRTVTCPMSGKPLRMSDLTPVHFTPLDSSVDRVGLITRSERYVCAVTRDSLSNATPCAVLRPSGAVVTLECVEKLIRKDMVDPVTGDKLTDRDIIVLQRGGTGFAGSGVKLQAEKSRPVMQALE

T2: rNOSIP (Homo sapiens, UniProt Q9Y314)
T2 construct: made in house; host or cells: E. coli BL21 (DE3)
T2 sequence (Q9Y314 with tags, fused parts or gaps): T1 sequence (Q9Y314 with tags, fused parts or gaps)

T3: recombinant Nitric oxide synthase interacting protein (NOSIP)
T3 chain: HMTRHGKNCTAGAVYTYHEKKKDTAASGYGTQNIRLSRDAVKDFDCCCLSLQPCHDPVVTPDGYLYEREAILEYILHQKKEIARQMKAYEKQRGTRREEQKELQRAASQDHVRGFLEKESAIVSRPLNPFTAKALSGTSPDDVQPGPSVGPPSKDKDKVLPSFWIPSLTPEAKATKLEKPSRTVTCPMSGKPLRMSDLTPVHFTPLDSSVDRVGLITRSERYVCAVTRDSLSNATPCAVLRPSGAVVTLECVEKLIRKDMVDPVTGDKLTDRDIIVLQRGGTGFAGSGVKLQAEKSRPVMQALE

B1: recombinant human iNOS oxygenase domain (protein)
chain: HMPRHVRIKNWGSGMTFQDTLHHKAKGILTCRSKSCLGSIMTPKSLTRGPRDKPTPPDELLPQAIEFVNQYYGSFKEAKIEEHLARVEAVTKEIETTGTYQLTGDELIFATKQAWRNAPRCIGRIQWSNLQVFDARSCSTAREMFEHICRHVRYSTNNGNIRSAITVFPQRSDGKHDFRVWNAQLIRYAGYQMPDGSIRGDPANVEFTQLCIDLGWKPKYGRFDVVPLVLQANGRDPELFEIPPDLVLEVAMEHPKYEWFRELELKWYALPAVANMLLEVGGLEFPGCPFNGWYMGTEIGVRDFCDVQRYNILEEVGRRMGLETHKLASLWKDQAVVEINIAVLHSFQKQNVTIMDHHSAAESFMKYMQNEYRSRGGCPADWIWLVPPMSGSITPVFHQEMLNYVLSPFYYYQVEAWKTHVWQDEKLE

Tests used:
[1] = molecular target: T1, iNOS-NOSIP protein interaction; assay: SPR: inhibition of rNOSIP association with immobilized recombinant iNOS by iNOS peptides / small molecules; assay type: binding; conditions: for inhibition hierarchy of iNOS-NOSIP protein interaction: SPR, rank order; for kon / Kd: analyte rNOSIP alone or + peptide/small molecule, ligand r iNOS, 20° C.; for kon: 1:1 Langmuir, read-out: Ka; for Kd: Kd/Ka; for inhibition of binding of NOSIP with iNOS ligand by small molecules: rNOSIP 250 nM, small molecules 1 uM, SPR (FIG. 4); for inhibition of iNOS-NOSIP protein interaction by iNOS derived peptides: iNOS peptides 250 nM, proteins 125 nM, SPR (FIG. 2(a))
Procedure: Four different iNOS peptides were synthesized commercially by China peptides and iNOS peptides were used for molecular interaction studies with immobilized recombinant iNOS purified protein. The iNOS peptides mediated inhibition of rNOSIP and riNOS protein association in Bio-Rad XPR 36 surface plasmon resonance biosensor instrument. […] 250 nM of iNOS peptides was used for inhibition assay with immobilized ligand(recombinant iNOS) in SPR analysis. Similar condition and concentration of small molecules were used for inhibition of recombinant protein association with immobilized ligand. […] The rNOSIP protein was incubated with iNOS derived peptide/small molecules for 30 minutes in ice for inhibition assay before the SPR application in our study. The molecular interaction was carried out at 20° C. and kinetic parameters were determined, after fitting the association and dissociation curves to a 1:1 (Langmuir)-binding model. An activated channel without immobilized ligand was used to evaluate nonspecific binding. The response curves were also recorded on control surfaces. Results were calculated after subtraction of the control values using the ProteOn Manager software.
The collected sensorgram data were processed by reference subtraction using double-referencing with the in-line blank buffer. The integrated ProteOn Manager software was used to fit the data with the Langmuir model describing a 1:1 binding stoichiometry. Ka is the association rate constant, Kd is the dissociation rate constant, and KD is the equilibrium dissociation constant, defined by the Kd/Ka ratio for the analytes-ligand binding.
The five small molecules bind with NOSIP and inhibit the association of recombinant NOSIP and recombinant iNOS. The rNOSIP protein was incubated with iNOS derived peptide or small molecules for 30 minutes in ice prior to SPR application. The molecular interaction was carried out at 20° C. and kinetic parameters were determined, after fitting the association and dissociation curves to a 1:1 (Langmuir)-binding model. An activated channel without immobilized ligand (recombinant iNOS) was used to evaluate nonspecific binding. The response curves were also recorded on control surfaces. Results were calculated after subtraction of the control values using the ProteOn Manager software.
The collected sensorgram data were processed by reference subtraction using double-referencing with the in-line blank buffer. The integrated ProteOn
Manager software was used to fit the data with the Langmuir model describing a 1:1 binding stoichiometry. Ka is the association rate constant, Kd is the dissociation rate constant, and KD is the equilibrium dissociation constant, defined by the Kd/Ka ratio for the analytes—ligand binding.

[2] = molecular target: T2, rNOSIP; assay: Isothermal titration calorimetry (ITC) of rNOSIP with small molecules / 18 mer iNOS peptide (PP2); assay type: binding; conditions: for Fold Change (KD): ITC KD relative to iNOS-Peptide2 = 1; for SM binding affinity with NOSIP, hierarchy: ITC, rank order
Procedure: The 18 mer iNOS peptide (PP2) and small molecules were used for physical association of molecules in calorimetric analysis. The molecular association leads to thermodynamics changes such as Gibb's free energy change (ΔG), entropy change (ΔS), enthalpy change (ΔH) and number of binding sites (N) in interacting solution were investigated by isothermal calorimetry MICROCAL PEQ (Malvern) at 25° C. […] The experiment consisted of multiple injections and each injection contained 1.5 μl of binding solution (recombinant NOSIP solution) with 120 second spacing time between subsequent injections. Sequential titrations were carried out and the sample solution was continuously stirred at 270 rpm by the rotating paddle attached to the syringe needle. Multiple injections of NOSIP made into the sample cell containing interacting solution of peptide and small molecules. The titration curves were analyzed using the analysis software provided with the calorimeter.
The 18 mer iNOS peptide (PP2) and five small molecules were used to analyze physical association in calorimetric analysis. The molecular association leads to thermodynamics changes such as Gibb's free energy change (ΔG), entropy change (ΔS), enthalpy change (ΔH) and number of binding sites (N) in interacting solution were investigated by isothermal calorimetry MICROCAL PEQ (Malvern) at 25° C. […] The experiment consisted of multiple injections and each injection contained 1.5 μl of binding solution with 120 second spacing time between subsequent injections. Sequential titrations were carried out and the sample solution was continuously stirred at 270 rpm by the rotating paddle attached to the syringe needle. Multiple injections of NOSIP made into the sample cell containing interacting solution of peptide and small molecules. The titration curves were analyzed using the analysis software provided with the calorimeter.

[3] = molecular target: T3, recombinant Nitric oxide synthase …
[4] = ITC 25° C., small molecule/peptide in cell, NOSIP in syringe
[5] = 10 μM iNOS peptide in the chamber, 150 μM rNOSIP in syringe, 25° C. (FIG. 3)

Molecule | inhibition hierarchy of iNOS-NOSIP protein interaction [1] | kon [1] [M⁻¹ s⁻¹] | Kd [1] [nM] | inhibition of binding of NOSIP with iNOS ligand by small molecules [1] | ΔG ([2]; ITC 25° C.) [kcal/mol] | ΔH ([2]; ITC 25° C.) [kcal/mol] | −TΔS ([2]; ITC 25° C.) [kcal/mol] | Kd [2, 4] [nM] | N (Sites) [2, 4] | Fold Change (KD) [2] | SM binding affinity with NOSIP, hierarchy [2] | inhibition of iNOS-NOSIP protein interaction by iNOS derived peptides [1] | other results
Cc1ccc(-c2nnn(CC(=O)N(Cc3ccco3)C(C(=O)NC(C)(C)C)c3ccc(O)cc3)n2)cc1 (stereo not shown) [MCULE-8469877005, N-tert-butyl-2-{N-[(furan-2-yl)methyl]-2-[5-(4-methylphenyl)-2H-1,2,3,4-tetrazol-2-yl]acetamido}-2-(4-hydroxyphenyl) acetamide] | CC4>CC11>CC6>CC5>CC13>iNOS Peptide 2 | 0.822 | 588000 | inhibit the binding of NOSIP with iNOS ligand | -8.56 | -29.3 ± 1.12 | 20.8 | 535 ± 80.8 | 0.794 | 0.976 | CC4>CC11>CC6>CC5>CC13>Peptide 2 (iNOS) | – | –
CC[C@H](C)[C@H](NC(=O)[C@H](CCCCN)NC(=O)[C@H](C)NC(=O)[C@H](CCC(=O)O)NC(=O)[C@H](CCCCN)NC(=O)[C@H](Cc1ccccc1)NC(=O)[C@H](CO)NC(=O)CNC(=O)[C@H](Cc1ccc(O)cc1)NC(=O)[C@H](Cc1ccc(O)cc1)NC(=O)[C@H](CCC(N)=O)NC(=O)[C@@H](N)CC(N)=O)C(=O)N[C@@H](CCC(=O)O)C(=O)N[C@@H](CCC(=O)O)C(=O)N[C@@H](Cc1c[nH]cn1)C(=O)N[C@@H](CC(C)C)C(=O)N[C@@H](C)C(=O)N[C@@H](CCCNC(=N)N)C(=O)O [iNOS-Peptide2] (H-NQYYGSFKEAKIEEHLAR-OH; N-terminus and C-terminus assumed) | CC4>CC11>CC6>CC5>CC13>iNOS Peptide 2 | 536 | – | – | -8.54 | -8.44 ± 0.271 | -0.10 | – | 1.09 | 1 | CC4>CC11>CC6>CC5>CC13>Peptide 2 (iNOS) | – | Fold Change (KD) ([1]; SPR KD relative to rNOSIP + iNOS peptide2 = 1): 1; inhibition of iNOS-NOSIP protein interaction by iNOS derived peptides ([1]; listed as PP2): inhibited; inhibition of iNOS-NOSIP protein interaction by iNOS derived peptides ([1]; listed as PP-2): block significantly interaction between recombinant iNOS and NOSIP; Kd [2, 5]: 493 ± 63.2 nM; ΔG [2, 5]: -8.61 kcal/mol; ΔH [2, 5]: -9.07 ± 0.251 kcal/mol; −TΔS [2, 5]: 0.459 kcal/mol
PP3: iNOS derived peptide, SEQ ID No: 27 (GWKPKYGRFDVVPLVLQANGRDPELFEIPPDLVL; Human) | – | – | – | – | – | – | – | – | – | – | – | inhibited | inhibition of iNOS-NOSIP protein interaction by iNOS derived peptides ([1]; listed as Peptide3): less efficient in inhibiting interaction between iNOS and NOSIP
PP1: iNOS derived peptide, SEQ ID No: 25 (TGDELIFATKQAWR; Human) | – | – | – | – | – | – | – | – | – | – | – | inhibited | inhibition of iNOS-NOSIP protein interaction by iNOS derived peptides ([1]; listed as Peptide-1): less efficient in inhibiting interaction between iNOS and NOSIP
CCCCN=c1scc(-c2ccc(O)c(C(N)=O)c2)n1N=Cc1cc(Br)c(O)c(OC)c1 [MCULE-8395438746, 5-(3-{[(3-bromo-4-hydroxy-5-methoxyphenyl)methylidene]amino}-2-(butylimino)-2,3-dihydro-1,3-thiazol-4-yl)-2-hydroxybenzamide] | CC4>CC11>CC6>CC5>CC13>iNOS Peptide 2 | 0.835 | 543000 | inhibit the binding of NOSIP with iNOS ligand | -8.55 | -28.5 ± 0.694 | 20.0 | 542 ± 54.9 | 0.864 | 0.989 | CC4>CC11>CC6>CC5>CC13>Peptide 2 (iNOS) | – | –
NS(=O)(=O)c1ccc(CCNC(=O)CCCn2c(SCC(=O)c3ccc(Cl)c(Cl)c3)nc3ccsc3c2=O)cc1 [MCULE-3765839647, 4-(2-{[2-(3,4-dichlorophenyl)-2-oxoethyl]sulfanyl}-4-oxo-3H,4H-thieno[3,2-d]pyrimidin-3-yl)-N-[2-(4-sulfamoylphenyl)ethyl]butanamide] | CC4>CC11>CC6>CC5>CC13>iNOS Peptide 2 | 0.807 | 704000 | inhibit the binding of NOSIP with iNOS ligand | -7.5 | -27.3 ± 1.11 | 19.8 | 524 ± 64.9 | 0.989 | 0.956 | CC4>CC11>CC6>CC5>CC13>Peptide 2 (iNOS) | – | –
PP4: iNOS derived peptide, SEQ ID No: 28 (NLQVFDARSCSTAREMFEHICRHVRYSTNNGNI; Human) | – | – | – | – | – | – | – | – | – | – | – | inhibited | inhibition of iNOS-NOSIP protein interaction by iNOS derived peptides ([1]; listed as peptide-4): less efficient in inhibiting interaction between iNOS and NOSIP
B1 | – | – | – | – | – | – | – | – | – | – | – | – | iNOS enzyme activity (nitrite quantified by Griess reaction, L-Arginine substrate) [3]: recombinant NOSIP inhibits enzyme activity of iNOS
